Tests used:
U87-luc cells = assay: Bioluminescence imaging of luciferase-transfected brain cancer cells in vitro; format: cell-based; conditions: B-YL 100 μg/mL, L-15 medium with MgCl2 5 mM
Method: (§1) Triplicate wells were plated with increasing numbers of either U87 cells without luciferase (a) or with luciferase (b). In each plate: Row 1, wells 1-3, no cells; wells 4-6, 1,875 cells per well. Row 2, wells 1-3, 3,750 cells per well; wells 4-6, 7,500 cells per well. Row 3, wells 1-3, 15,000 cells per well; wells 4-6, 30,000 cells per well. Row 4, wells 1-3, 60,000 cells per well. Incubation buffer, Leibovitz's L-15 medium with MgCl2 (5 mM). Each well was incubated with B-YL (100 μg/mL). Plates were imaged using an IVIS 200 In vivo Imaging System. Escalating luminescence was observed only in wells containing luciferase-expressing cells (b).
(§2) The B-YL substrate can be incubated with the brain cancer cell line U87-luc, which was derived from the parental brain cancer cell line U87 after stable transfection with a luciferase gene. […] B-YL clearly adsorbed across the cell membrane and was oxidized by luciferase. Therefore, B-YL can be used for the detection of the cancer cells by bioluminescence.
(§3) The EGF-B-SA-B-YL complex can be tested for the ability to target and image brain cancer cell lines that overexpress the biomarker EGFR using bioluminescence in vitro. U87 (gray hatch bars) and U87-luc (black bars) cells can be treated with free B-YL (150 μg/m L), untargeted B-SA-B-YL complex (150 μg/mL) or EGFR-targeted EGF-B-SA-B-YL complex (50-150 µg/mL). Bioluminescence were detected immediately. […]

firefly luciferase = target: T1, firefly luciferase (Photinus pyralis, UniProt P08659); assay: Bioluminescence spectrum of probe B-YL with firefly luciferase; format: biochemical
T1 construct: purchased Sigma
T1 sequence (P08659 whole entry): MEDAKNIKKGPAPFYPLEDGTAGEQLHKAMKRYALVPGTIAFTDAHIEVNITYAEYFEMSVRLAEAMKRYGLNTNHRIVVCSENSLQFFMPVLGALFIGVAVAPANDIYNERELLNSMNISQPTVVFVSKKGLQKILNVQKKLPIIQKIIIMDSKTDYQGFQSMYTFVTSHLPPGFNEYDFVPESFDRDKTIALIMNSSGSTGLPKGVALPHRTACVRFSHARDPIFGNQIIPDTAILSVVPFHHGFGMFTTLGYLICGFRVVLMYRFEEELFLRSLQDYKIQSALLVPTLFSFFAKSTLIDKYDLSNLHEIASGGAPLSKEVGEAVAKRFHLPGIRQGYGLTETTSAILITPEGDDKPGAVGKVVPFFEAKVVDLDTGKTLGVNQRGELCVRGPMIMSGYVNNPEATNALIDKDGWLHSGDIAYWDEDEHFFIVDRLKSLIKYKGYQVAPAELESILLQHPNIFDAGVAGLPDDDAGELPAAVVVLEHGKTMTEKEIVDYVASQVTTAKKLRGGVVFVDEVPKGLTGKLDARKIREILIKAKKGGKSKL
Method: After the synthesis of the biotinylated probe, B-YL, the probe can be evaluated with a commercially available firefly luciferase. […] The mechanism for generating bioluminescence is shown in Scheme 2.
In a well of 96 quartz plate (500 μl), HEPES buffer (30 mM) solution (400 μl, pH=7.7) containing MgSO4 (5.0 mM), ATP (2.6 mM), DTT (3.5 mM), CoA (1.5 mM) and commercially available firefly luciferase (40 μg/ml), was prepared. The probe B-YL was then added and mixed to a final concentration (32 μM). Bioluminescence spectrum of B-YL was then taken immediately with instrument SynergyMx (BioTek, VT).

U87 cells = assay: Bioluminescence imaging of parental brain cancer cells without luciferase in vitro; format: cell-based
Method: as §1, §2, §3

Substance: 6-(3-N—{N-[5-(Hexahydro-2-oxo-1H-thieno[3,4-d]imidazol-4-yl)-1-oxopentyl]-, [3aS-(3aα,4β, 6aα)]}-aminoethyl-poly(ethylene glycol)21-oxyethyl-1H-1,2,3-triazol-5-yl-methylamino-oxomethyl-amino)-2-benzothiazolyl]-4,5-dihydro-,(4S)-4-thiazolecarboxylic acid [B-YL]
- number of U87-luc cells at which bioluminescence signal was detected (FIG. 1b) (U87-luc cells): at least 7,500 cells per well
- substrate of firefly luciferase (firefly luciferase; commercial firefly luciferase): found to be a substrate of firefly luciferase
- bioluminescence maximum emission (firefly luciferase; commercial firefly luciferase 40 μg/ml, B-YL 32 μM, HEPES buffer pH 7.7): 590 nm
- bioluminescence activity in parental U87 cells (FIG. 1a) (U87 cells; B-YL 100 μg/mL, 0-60,000 cells per well, L-15 medium with MgCl2 5 mM): did not reveal bioluminescence activity regardless of the number of cells
- conversion to bioluminescence photons by U87 cells (FIG. 2) (U87 cells; U87 cells without luciferase): Neither of the complexes (B-SA-B-YL or EGF-B-SA-B-YL) nor free B-YL were converted to bioluminescence photons
